Publication PMC7307922 (Journal of Medicinal Chemistry, 2020)
Residue numbers refer to the chain shown, from its start.

Experiments:
hFFA3 [1] = target: T1, hFFA3 (Homo sapiens, UniProt O14843); assay: cell-based
T1 sequence (O14843 1-346): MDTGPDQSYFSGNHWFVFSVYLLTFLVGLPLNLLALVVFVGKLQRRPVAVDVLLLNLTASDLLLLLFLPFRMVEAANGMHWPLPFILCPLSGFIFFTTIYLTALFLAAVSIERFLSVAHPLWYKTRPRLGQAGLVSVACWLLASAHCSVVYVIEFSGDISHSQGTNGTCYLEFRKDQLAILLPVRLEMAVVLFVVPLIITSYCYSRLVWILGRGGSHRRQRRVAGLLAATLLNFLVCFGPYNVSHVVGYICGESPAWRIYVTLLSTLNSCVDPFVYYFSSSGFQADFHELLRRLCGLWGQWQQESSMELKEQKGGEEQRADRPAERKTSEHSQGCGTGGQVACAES
Outline: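 HEK293 Flp-In T-REx cells stably carrying FFA3-eYFP, expression induced overnight with doxycycline, 3000 cells/well; compounds co-incubated 1 h to inhibit 0.3 μM forskolin-induced cAMP, read with HTRF cAMP kit.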

hFFA3 Q131A = target: T2, hFFA3 Q131A (Homo sapiens, UniProt O14843, Q131A); assay: Potency at FFA3 mutant Q131A; assay type: cell-based
T2 sequence (O14843 1-346 Q131A): T1 sequence (O14843 1-346) with Q131A
Protocol: (§1) The previously published compound 1 was not affected by mutation of either R185A or R258A in the orthosteric binding site, and the compounds were therefore believed to be allosteric modulators. […] After the publication of the FFA1 crystal structure in complex with an allosteric agonist located in the TM region close to the intracellular site,[32] a homology model of hFFA3 was constructed using Modeller. […] Thus, additional docking of (R)-1 in this site were performed to find poses where Q131, but not R126, show a central role in binding. […] The narrow binding cavity around the core scaffold is in agreement with the restrained SAR observed for this series and the furan moiety pointing out of the binding cavity might explain the flexibility in substituents at this site (Figure 3c,d). Although Q131A impacts the potency of (R)-1 with high significance, the magnitude of the effect is lower than what would be generally expected for the removal of a hydrogen bond interaction; thus, additional studies are required to confirm the proposed binding site.

hFFA3 R126A = target: T3, hFFA3 R126A (Homo sapiens, UniProt O14843, R126A); assay: Potency at FFA3 mutant R126A; assay type: cell-based
T3 sequence (O14843 1-346 R126A): T1 sequence (O14843 1-346) with R126A
Protocol: as §1

hFFA3 E112A = target: T4, hFFA3 E112A (Homo sapiens, UniProt O14843, E112A); assay: Potency at FFA3 mutant E112A; assay type: cell-based
T4 sequence (O14843 1-346 E112A): T1 sequence (O14843 1-346) with E112A
Protocol: as §1

hFFA3 [2] = target: T1, hFFA3; assay: biochemical; settings: for GTPγS pEC50: hFFA3, mean of ≥3 independent experiments ± standard error
Protocol: The ligands were initially screened in a human FFA3-dependent [^35S]GTPγS binding assay as this assay reflects receptor-mediated activation of Gi/o proteins and is known to generally correlate well with ligand affinity.[30] Analogues of particular interest were tested further in a cAMP inhibition assay as this is an important downstream effect of Gi-activation. […] It is furthermore performed in whole cells, is more downstream, includes G protein signal amplification, and therefore better reflects a more natural ligand–receptor response.
Membranes were isolated from Flp-In T-REx HEK293 cells treated with 100 ng/mL doxycycline to induce receptor expression. Cells were washed with ice-cold phosphate-buffered saline and removed from dishes by scraping before being centrifuged for 5 min at 4 °C, 3000 rpm. Pellets were resuspended in TE buffer (75 mM Tris–HCl, 5 mM EDTA; pH 7.5) with the addition of a protease inhibitor mixture (Roche Applied Science, West Sussex, UK). This was then homogenized with a 5 mL hand-held homogenizer and subsequently centrifuged at 1500 rpm for 5 min at 4 °C, from which the supernatant was collected and further centrifuged at 50 000 rpm for 30 min at 4 °C. The resulting pellet was resuspended in TE buffer, and the protein content was measured using a BCA protein assay kit (Pierce, Fisher Scientific, Loughborough, UK).
Reactions were initiated with the addition of [^35S]GTPγS at 50 nCi per tube; reactions were terminated after 1 h of incubation at 25 °C by rapid filtration through GF/C glass filters using a 24-well Brandel cell harvester (Alpha Biotech, Glasgow, UK). Unbound radioligand was removed from filters by washing three times with ice-cold wash buffer (50 mM Tris–HCl, pH 7.4, and 10 mM MgCl2), and [^35S]GTPγS binding was determined by liquid scintillation spectrometry.

hFFA3 [3] = target: T1, hFFA3; parameters: expressed in transfected cells; host or cells: Flp-In T-REx HEK293 (membranes); method as in PMID 24870406; settings: previously characterized; cited from earlier work
[4] = efficacy relative to maximal response of propionate

Compound	cAMP Emax (hFFA3 [1]; [4])	cAMP pEC50 (hFFA3 [1]; hFFA3, compound alone, mean of ≥3 independent experiments ± standard error)	effect of mutation Q131A on potency (hFFA3 Q131A)	effect of mutation R126A on potency (hFFA3 R126A)	effect of mutation E112A on potency (hFFA3 E112A)	GTPγS Emax (hFFA3 [2]; [4])	GTPγS pEC50 (hFFA3 [2])	activity alone and with propionate (hFFA3 [3])	EC50 (hFFA3 [1])	reduction of potency by mutation Q131A (hFFA3 Q131A; p < 0.001)
propionate [Compound C3, reference compound]	100	4.93 ± 0.10	did not affect	did not affect	did not affect	100	4.97 ± 0.08			
CC1=C(C(=O)Nc2ccccc2C)C(c2ccccc2Br)C2=C(CCCC2=O)N1 (stereo not shown) [Compound 5]							nr^e	inactive alone but to act as a PAM of propionate		
CC1=C(C(=O)Nc2ccccc2C)[C@H](c2ccco2)C2=C(CCCC2=O)N1 [(R)-1]				did not affect	did not affect				295 nM	> 3 fold
